Measurements published in ChEMBL document CHEMBL4304811, “Development of a Water-Soluble Indolylmaleimide Derivative IM-93 Showing Dual Inhibition of Ferroptosis and NETosis” (ACS Med Chem Lett, 2019).

What was measured:
[1] = biological target: Cyclin-dependent kinase 13 (Homo sapiens) (UniProt Q14004); assay: Binding affinity to wild-type human partial length CDC2L5 (H675 to S1054 residues) expressed in mammalian expression system assessed as residual binding level at 10 uM by Kinomescan method relative to control
[2] = biological target: Bone morphogenetic protein receptor type-2 (Homo sapiens) (UniProt Q13873); assay: Binding affinity to wild-type human partial length BMPR2 (R179 to Q526 residues) expressed in mammalian expression system assessed as residual binding level at 10 uM by Kinomescan method relative to control
[3] = biological target: Glycogen synthase kinase-3 beta (Homo sapiens) (UniProt P49841); assay: Binding affinity to wild-type human full length GSK3B (M1 to T433 residues) expressed in mammalian expression system assessed as residual binding level at 10 uM by Kinomescan method relative to control
[4] = biological target: Tyrosine-protein kinase Yes (Homo sapiens) (UniProt P07947); assay: Binding affinity to wild-type human partial length YES (T257 to L543 residues) expressed in bacterial expression system assessed as residual binding level at 10 uM by Kinomescan method relative to control
[5] = biological target: Serine/threonine-protein kinase 38 (Homo sapiens) (UniProt Q15208); assay: Binding affinity to wild-type human partial length NDR1 (N33 to E449 residues) expressed in mammalian expression system assessed as residual binding level at 10 uM by Kinomescan method relative to control
[6] = biological target: Ephrin type-A receptor 2 (Homo sapiens) (UniProt P29317); assay: Binding affinity to wild-type human partial length EPHA2 (T593 to V891 residues) expressed in bacterial expression system assessed as residual binding level at 10 uM by Kinomescan method relative to control
[7] = biological target: Ribosomal protein S6 kinase alpha-2 (Homo sapiens) (UniProt Q15349); assay: Binding affinity to wild-type human partial length C-terminal RSK3 kinase domain 2 (V403 to K700 residues) expressed in bacterial expression system assessed as residual binding level at 10 uM by Kinomescan method relative to control
[8] = tested on: eIF-2-alpha kinase GCN2 (Homo sapiens), Q9P2K8 [S808G]; assay: Binding affinity to wild-type human partial length GCN2 kinase domain 2 (R585 to T1018 residues) S808G mutant expressed in bacterial expression system assessed as residual binding level at 10 uM by Kinomescan method relative to control
[9] = biological target: Receptor-interacting serine/threonine-protein kinase 2 (Homo sapiens) (UniProt O43353); assay: Binding affinity to wild-type human partial length RIPK2 (M1 to K310 residues) expressed in bacterial expression system assessed as residual binding level at 10 uM by Kinomescan method relative to control
[10] = biological target: Dual specificity mitogen-activated protein kinase kinase 6 (Homo sapiens) (UniProt P52564); assay: Binding affinity to wild-type human partial length MEK6 (K36 to D334 residues) expressed in bacterial expression system assessed as residual binding level at 10 uM by Kinomescan method relative to control
[11] = biological target: 5'-AMP-activated protein kinase catalytic subunit alpha-1 (Homo sapiens) (UniProt Q13131); assay: Binding affinity to wild-type human partial length AMPK alpha1 (M1 to E306 residues) expressed in bacterial expression system assessed as residual binding level at 10 uM by Kinomescan method relative to control
[12] = biological target: STE20-like serine/threonine-protein kinase (Homo sapiens) (UniProt Q9H2G2); assay: Binding affinity to wild-type human partial length SLK (S14 to A307 residues) expressed in bacterial expression system assessed as residual binding level at 10 uM by Kinomescan method relative to control
[13] = biological target: Mitogen-activated protein kinase kinase kinase 5 (Homo sapiens) (UniProt Q99683); assay: Binding affinity to wild-type human partial length ASK1 (E648 to S964 residues) expressed in bacterial expression system assessed as residual binding level at 10 uM by Kinomescan method relative to control
[14] = biological target: Serine/threonine-protein kinase SIK2 (Homo sapiens) (UniProt Q9H0K1); assay: Binding affinity to wild-type human full length SIK2 (M1 to N926 residues) expressed in bacterial expression system assessed as residual binding level at 10 uM by Kinomescan method relative to control
[15] = biological target: Non-receptor tyrosine-protein kinase TNK1 (Homo sapiens) (UniProt Q13470); assay: Binding affinity to wild-type human full length TNK1 (M1 to P661 residues) expressed in bacterial expression system assessed as residual binding level at 10 uM by Kinomescan method relative to control
[16] = biological target: Receptor-interacting serine/threonine-protein kinase 1 (Homo sapiens) (UniProt Q13546); assay: Binding affinity to wild-type human partial length RIPK1 (M1 to K305 residues) expressed in bacterial expression system assessed as residual binding level at 10 uM by Kinomescan method relative to control
[17] = biological target: Serine/threonine-protein kinase pim-1 (Homo sapiens) (UniProt P11309); assay: Binding affinity to wild-type human partial length PIM1 (A15 to K313 residues) expressed in bacterial expression system assessed as residual binding level at 10 uM by Kinomescan method relative to control
[18] = biological target: Serine/threonine-protein kinase PAK 1 (Homo sapiens) (UniProt Q13153); assay: Binding affinity to wild-type human partial length PAK1 (S149 to H545 residues) expressed in bacterial expression system assessed as residual binding level at 10 uM by Kinomescan method relative to control
[19] = biological target: RAF proto-oncogene serine/threonine-protein kinase (Homo sapiens) (UniProt P04049); assay: Binding affinity to wild-type human partial length RAF1 (I330 to T640 residues) expressed in bacterial expression system assessed as residual binding level at 10 uM by Kinomescan method relative to control
[20] = biological target: Receptor-type tyrosine-protein kinase FLT3 (Homo sapiens) (UniProt P36888); assay: Binding affinity to wild-type human partial length FLT3 (V592 to Y969 residues) expressed in bacterial expression system assessed as residual binding level at 10 uM by Kinomescan method relative to control
[21] = biological target: Serine/threonine-protein kinase PLK3 (Homo sapiens) (UniProt Q9H4B4); assay: Binding affinity to wild-type human partial length PLK3 (A42 to L334 residues) expressed in mammalian expression system assessed as residual binding level at 10 uM by Kinomescan method relative to control
[22] = tested on: Tyrosine-protein kinase ABL1 (Homo sapiens), P00519 [Q252H]; assay: Binding affinity to human non-phosphorylated ABL1 Q252H mutant (S229 to K512 residues) expressed in mammalian expression system assessed as residual binding level at 10 uM by Kinomescan method relative to control
[23] = biological target: Mitogen-activated protein kinase 15 (Homo sapiens) (UniProt Q8TD08); assay: Binding affinity to wild-type human partial length ERK8 (M1 to P437 residues) expressed in bacterial expression system assessed as residual binding level at 10 uM by Kinomescan method relative to control
[24] = biological target: MAP kinase-activated protein kinase 5 (Homo sapiens) (UniProt Q8IW41); assay: Binding affinity to wild-type human partial length MAPKAPK5 (M1 to D322 residues) expressed in mammalian expression system assessed as residual binding level at 10 uM by Kinomescan method relative to control

Compound: CC(C)N1C(=O)C(NCCCN(C)C)=C(c2cn(C)c3ccccc23)C1=O.Cl
- Activity [1]: 99%
- Activity [2]: 100%
- Activity [3]: 84%
- Activity [4]: 100%
- Activity [5]: 93%
- Activity [6]: 90%
- Activity [7]: 100%
- Activity [8]: 100%
- Activity [9]: 100%
- Activity [10]: 99%
- Activity [11]: 93%
- Activity [12]: 78%
- Activity [13]: 96%
- Activity [14]: 100%
- Activity [15]: 95%
- Activity [16]: 96%
- Activity [17]: 100%
- Activity [18]: 92%
- Activity [19]: 100%
- Activity [20]: 100%
- Activity [21]: 100%
- Activity [22]: 100%
- Activity [23]: 95%
- Activity [24]: 71%
